From paper PMC10409773, “Structure, catalysis, chitin transport, and selective inhibition of chitin synthase” (Nature Communications, 2023)

T1: Chs1 (chitin synthase 1) (Saccharomyces cerevisiae, UniProt P08004)
T1 construct: Chs1 (1131 residues) with C-terminal triple-FLAG; N-terminal ~374 residues largely disordered; homodimer
T1 sequence (P08004 1-1131): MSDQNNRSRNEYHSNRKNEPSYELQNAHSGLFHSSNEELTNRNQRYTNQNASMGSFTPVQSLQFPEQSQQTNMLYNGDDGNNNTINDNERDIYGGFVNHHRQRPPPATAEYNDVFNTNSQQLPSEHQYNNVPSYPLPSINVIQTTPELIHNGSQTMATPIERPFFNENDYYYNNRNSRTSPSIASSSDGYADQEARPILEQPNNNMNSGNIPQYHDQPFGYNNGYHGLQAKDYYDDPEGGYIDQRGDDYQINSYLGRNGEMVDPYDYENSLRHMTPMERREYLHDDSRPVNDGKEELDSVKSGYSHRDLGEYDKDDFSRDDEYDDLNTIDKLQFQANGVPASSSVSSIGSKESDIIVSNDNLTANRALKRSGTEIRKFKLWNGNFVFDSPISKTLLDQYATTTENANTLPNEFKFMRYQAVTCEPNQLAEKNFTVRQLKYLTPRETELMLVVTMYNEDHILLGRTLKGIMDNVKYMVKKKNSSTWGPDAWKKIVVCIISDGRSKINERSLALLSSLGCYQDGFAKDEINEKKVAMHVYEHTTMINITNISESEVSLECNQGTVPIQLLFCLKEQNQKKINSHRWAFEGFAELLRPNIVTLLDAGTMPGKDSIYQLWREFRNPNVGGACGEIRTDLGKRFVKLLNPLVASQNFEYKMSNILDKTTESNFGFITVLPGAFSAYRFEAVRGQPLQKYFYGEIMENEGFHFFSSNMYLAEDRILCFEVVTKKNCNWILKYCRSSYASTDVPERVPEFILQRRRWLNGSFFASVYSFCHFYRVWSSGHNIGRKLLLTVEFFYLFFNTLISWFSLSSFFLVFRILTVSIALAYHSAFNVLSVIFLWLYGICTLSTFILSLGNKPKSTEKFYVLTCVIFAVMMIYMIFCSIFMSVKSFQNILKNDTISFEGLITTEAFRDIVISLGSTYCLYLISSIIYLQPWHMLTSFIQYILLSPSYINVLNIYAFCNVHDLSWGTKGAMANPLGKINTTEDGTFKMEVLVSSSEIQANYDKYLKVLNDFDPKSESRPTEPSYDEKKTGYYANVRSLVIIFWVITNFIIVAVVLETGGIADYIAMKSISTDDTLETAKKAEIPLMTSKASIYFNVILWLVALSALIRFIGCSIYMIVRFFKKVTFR

B1: Saccharomyces cerevisiae chitin synthase 1 (Chs1), wild type, C-terminal triple FLAG (enzyme, S. cerevisiae)
chain: T1 sequence (P08004 1-1131)
notes: Chitin synthase 1 (Chs1), S. cerevisiae, UniProt P08004; the first 374 residues (except 245-271) are not seen in the maps; the purified sample was partly digested in the N-terminal region by endogenous protease (a smaller species lacks about the N-terminal 150 residues); also called ScChs1; scChs1

What was measured:
Chs1 (chitin synthase 1) = target: T1, Chs1 (chitin synthase 1); experiment: cryo-EM structure at […] Å with UDP-GlcNAc (also with UDP, 8K3U); assay type: binding
[1] = target: the molecule itself; experiment: cryo-EM structure; single-particle cryo-EM of purified Chs1 (~3 mg/mL) in LMNG/GDN/CHS, alone or with 5 mM UDP-GlcNAc, GlcNAc, UDP, Nikkomycin Z or Polyoxin B on ice; maps refined with C2 symmetry

Molecule | cryo-EM structure at 2.9 Å with UDP-GlcNAc (also with UDP, 8K3U) (Chs1 (chitin synthase 1)) | stoichiometry N [1]
CC(=O)N[C@H]1C(O)O[C@H](CO)[C@@H](O)[C@@H]1O (some centres unmarked) [GlcNAc] | The GlcNAc ring is vertically inserted into a slit between the indole ring of W760 and the pyrrolidine ring | –
B1 | – | 2
